This is an account of results in patent US8263757B2, “Promiscuous HER-2/Neu CD4 T cell epitopes” (Dendreon Corporation, priority 2006, dated 2012).

Assay [1] relates to T cell clone HER500.23c21. Briefly: Antigen-specific stimulation of T cell clone HER500.23c21 by protein antigens presented by autologous PBMC (IFNγ ELISA, IL-2 by HT-2 proliferation). The class given is cell-based, human. The settings on record: autologous PBMC presentation, increasing doses of antigen; for IFNγ and IL-2 production by HER500.23c21 in response to antigen: 48 hours. Here is the method: FIG. 1. T cell clone HER500.23c21 is HER-2/Neu specific. (A) HER500 (amino acids ▪ and BA7072 (HER500/GM-CSF fusion protein) ♦ specific IFNγ production by HER500.23c21 was measured using ELISA after autologous PBMC presentation of the antigens; background was also tested ▴. Assay was set up in triplicate in 96 well round bottom plates in complete IMDM media with 10% FBS. Autologous PBMCs were used at 2×10^5 cells/well and T cell clone HER500.23c21 was added at 1×10^5 cells/well. Antigens were at the final concentrations shown. Assay was incubated for 48 hours at 37° C. with 5% CO2 and supernatant was removed from wells to test for cytokine production. (A) IFNγ production. Data points shown represent the calculated pg/mL for each antigen concentration. (B) IL-2 production for the same assay was measured using HT-2 cell proliferation. Data points represent the mean CPM values for each antigen concentration.
Identification and Characterization of HER-2/neu specific T cell clones. Clones were screened for antigen specificity using autologous PBMC and antigen or autologous EBV-LcL and Her500 peptides. Stimulations were set up in 96 well round bottom plates in cRPMI+10% FBS media and incubated for 48 hours at 37° C. with 5% CO2. Additionally, clones were stained for CD4 and CD8 surface expression by flow cytometry.
Cytokine Production. To determine cytokine production in the antigen specific stimulation assays, after 48 hours, 200 μL of supernatant was pulled from cultures and tested for both IL-2 and IFNγ production. IL-2 production was measured using the IL-2 dependent line HT-2 (ATCC). HT-2 cells were grown in IMDM with 10% FBS and 100 uM NEAA, 1 mM Sodium Pyruvate, 2 mM L-glutamine, […], 50 U/mL Streptomycin, 20 mM HEPES and 20 uM 2-Mercaptoethanol (cIMDM+10% FBS) and fed twice a week with 20 ng/mL rIL-2. For the assay, 4 days after HT-2 cells were split, cells were washed with IMDM+10% FBS to remove all rIL-2, and cells were added to 96 well round bottom plates at 1×10^4 cells/well in cIMDM+10% FBS. Supernatants from antigen specific stimulation were added to wells and plates were incubated 24-30 hours at 37° C. The following day 1 μCi of ^3[H] TdR was added for the final 6 hours of the assay and plates were harvested to glass fiber filter mats and DNA incorporation of the radioisotope, or proliferative response, was determined by counts per minute using a liquid scintillation counter (PerkinElmer Life and Analytical Sciences, Inc. Boston, Mass.). IFNγ production was measured using anti-human IFNγ antibody pairs for ELISA (BD Pharmingen, San Diego, Calif.). […] 2M HCl was added to stop the reaction and plates were read for absorbance at 492 nm on a spectrophotometer. […]
For orientation: ELISA stands for enzyme-linked immunosorbent assay.

Assay [2] concerns T cell clone HER500.23c21. Briefly: Minimal epitope: truncated HERp270-284 peptides presented by EBV LcL lines of diverse HLA-DRB1 alleles to HER500.23c21. It counts as cell-based, human. To be noted: presented by EBV LcL lines representing HLA-DRB1 alleles *0301, *0302, *1301 and *1402. The text has this: FIG. 5. Graphic depiction of IFNγ production by HER500.23c21 following exposure to peptides presented by EBV LcL lines of diverse HLA-DRb1 alleles. The peptides were 9-mers (SEQ ID NOS:3-9) within the HER-2/Neu peptide 270-284 (SEQ ID NO:2).
FIG. 6. Graphic depiction of IFNγ production by HER500.23c21 following exposure to peptides presented by EBV LcL lines of diverse HLA-DRb1 alleles. The peptides were 10- or 11-mers (SEQ ID NOs:12-15, 10, 1, 16-19 and 11, respectively) within the HER-2/Neu peptide 270-284.
Because of the clear response of HER500.23c21 to HER-2/Neu protein sequences, the specific epitope recognized by HER500.23c21 was mapped using peptides. HER500.23c21 was tested against a panel of 125 individual overlapping 15-mer peptides covering the HER-2/Neu protein sequences within HER500. Each peptide was used at 1 ug/ml with autologous EBV LCL cells as antigen presenting cells. […]
In this series of experiments, additional peptides derived from the HER-2/Neu protein were tested for their potential as promiscuous MHC Class II HER-2/neu epitopes. […] Supernatants were harvested and analyzed for IFNγ production using ELISA. […] Results of the IFNγ produced by clone HER500.23c21 in response to peptide and each HLA-DR allele are reported in pg/mL of IFNγ or as absorbance at 492 nm.

Regarding “BA7072: proprietary recombinant fusion protein: HER500 expressed as a fusion protein with hGM-CSF”, in assay [1], the “dose dependence of HER500.23c21 response to protein” value was “dose dependent manner”; the “IFNγ and IL-2 production by HER500.23c21 in response to antigen” value was “specifically produced IFNγ and IL-2”. Consider “TYNTDTFESMP (HER-2p270-284 11-mer) [SEQ ID NO:11, 11-mer truncation of HERp270-284]”, for which, in assay [2], the “Stimulation of HER500.23c21” value is “successful”.

With “HER500: recombinant protein containing sequences from both the ECD and ICD of HER-2/neu; HER-2/neu portion of BA7072”, in assay [1], the “dose dependence of HER500.23c21 response to protein” value is given as “dose dependent manner”; the “IFNγ and IL-2 production by HER500.23c21 in response to antigen” value is “specifically produced IFNγ and IL-2”. In the case of “VTYNTDTFESM (HER-2p270-284 11-mer) [SEQ ID NO:10, 11-mer truncation of HERp270-284]”, the “Stimulation of HER500.23c21” value in assay [2] is reported as “successful”.
